Experimental data reported in US20250281460A1, “PEGYLATED BILIRUBIN FOR THE TREATMENT OF […], OBESITY, FATTY LIVER DISEASE, CARDIOVASCULAR DISEASES AND TYPE II DIABETES” (The University of Toledo, priority 2019, published 2025).
“Also recorded” adds a separate entry of the source.

How the values were obtained:
PPARα = biological target: T1, PPARα (Mus musculus, UniProt P23204)
T1 sequence (P23204 1-468): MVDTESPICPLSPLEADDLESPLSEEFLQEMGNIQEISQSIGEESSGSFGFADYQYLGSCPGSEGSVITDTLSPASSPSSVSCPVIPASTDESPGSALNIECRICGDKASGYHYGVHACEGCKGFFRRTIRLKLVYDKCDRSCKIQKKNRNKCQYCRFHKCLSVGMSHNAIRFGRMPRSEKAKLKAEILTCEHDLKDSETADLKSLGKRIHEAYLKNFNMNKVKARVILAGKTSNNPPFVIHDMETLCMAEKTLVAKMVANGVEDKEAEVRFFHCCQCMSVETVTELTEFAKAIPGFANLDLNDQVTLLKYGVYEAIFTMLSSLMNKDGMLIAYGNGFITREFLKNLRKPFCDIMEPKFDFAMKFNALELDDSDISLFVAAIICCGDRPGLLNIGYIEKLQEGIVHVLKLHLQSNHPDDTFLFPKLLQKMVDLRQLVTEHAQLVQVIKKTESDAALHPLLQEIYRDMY
Procedure: Cells were crosslinked with formaldehyde with a final concentration of 1% in media while shaking at room temperature for 10 min. The activity of the formaldehyde was quench with the addition of glycine while rocking for 5 min at room temperature. Cells were washed twice with 1×PBS, collected into a 15 ml conical tube and spun down at 3,000 rpm for 5 min. Pellets were rapidly frozen on dry ice ethanol mix and stored at −80° C. for a minimum of 1 hour or immediately resuspended in a series of lysis buffers (see table for ChIP buffer table) containing protease inhibitors for 5 min. Cells were sonicated for approximately 8 min per sample. The lysates were centrifuged for 10 min at 4° C. at 13,000 rpm. The lysates were pre-cleared in BSA/Salmon sperm blocked beads rotating for 2 hours at 4° C. […] Lysates were then incubated with Agarose A beads and rotated for 4 hours at 4° C. The samples were then washed with a ChIP washing buffer (see table for ChIP buffer table) 5 times. The protein was eluted in an Elution buffer at 65° C. for 30 min shaking every 2 min. The eluted samples were transferred to another tube and incubated at 65° C. overnight to reverse crosslinking. The samples were purified after 1-hour incubation with Proteinase K at 55° C. with a isopropanol/chloroform/ethanol mixture. DNA was quantified on a NanoDrop 2000 spectrophotometer (Thermo Fisher Scientific, Wilmington, DE). PCR amplification of the genomic DNA was performed by quantitative real-time PCR using TrueAmp SYBR Green qPCR SuperMix (Advance Bioscience). The thermocycling protocol consisted of 2 min at 50° C. and then 10 min at 95° C., 48 cycles of 30 sec at 95° C., 1 min at 65° C.

BAT cells = assay: Real-time PCR in differentiated BAT cells; format: cell-based, murine; conditions: 50 μM biliverdin, 50 μM WY14,463, 10 μM rosiglitazone, 24 hrs
Procedure: Total RNA was extracted from mouse tissues using the miRNeasy Mini Kit (Qiagen). Total RNA was read on a NanoDrop 2000 spectrophotometer (Thermo Fisher Scientific, Wilmington, DE) and cDNA was synthesized using High Capacity cDNA Reverse Transcription Kit (Applied Biosystems). PCR amplification of the cDNA was performed by quantitative real-time PCR using TrueAmp SYBR Green qPCR SuperMix (Advance Bioscience). The thermocycling protocol consisted of 3 min at 95° C., 48 cycles of 15 sec at 95° C., 30 sec at 60° C., and based on primer size 0 to 30 sec at 72° C. and finished with a melting curve ranging from 60-95° C. to allow distinction of specific products. Normalization was performed in separate reactions with primers to 36B4.

[1] = test system: BAT PPARα CRISPR KO cells; assay: Seahorse analysis in BAT PPARα CRISPR KO cells; format: cell-based, mouse; conditions: both KO clones, 24 hours
Text: To further delineate the actions of bilirubin on BAT, CRISPR technology was developed to knockout (KO) PPARα and establish two null clone lines. […]. The function of the ligands was lost in both clones for the BAT PPARα CRISPR KO cells.
CRISPR-Technology was employed in BAT as previously described to excise part of Exon 3 and Exon 4 of the PPARα gene to create a PPARα Knockout BAT cell line. Two sgRNAs with high efficacy and low off-target scores were identified on Exon 3 and 4 of the mouse PPARα gene using Benchling online software. The two Cas9 targets were separated by 9,465 bases. All of the off-targets to our PPARα sgRNA had 4 mismatches, of which at least 1-2 were within the seed region (up to 12 bases proximal to the protospacer adjacent motif (PAM) site) which reduces the likelihood of Cas9 off-target effects. The multiplex sgRNAs were generated using the PrecisionX Multiplex gRNA Cloning Kit according to manufacturer instructions. […] After 36 h of transfection, cells with the top 10% level of fluorescence were single-sorted into 96-well plates by fluorescent activated cell sorting. […]
Cellular respiration was quantified using the Seahorse Extracellular Flux Analyzer XF-96 (Agilent Technologies, Cedar Creek, TX). […] The oxygen consumption rate (OCR) and extracellular acidification rate (ECAR) were used to quantify the cellular energy phenotype of the cells. […]

PPARα occupancy at the 13K enhancer of the Ucp1 (PPARα; 50 μM, 24 hours): significantly increased
PPARα occupancy at the −3306 to −3109 region of the Cpt1 promoter (PPARα; 50 μM, 24 hours): significantly increased
occupancy of PPARα at 13K enhancer of the Ucp1 (PPARα; BAT cells): increased
occupancy of PPARα at the Cpt1 promoter (PPARα; BAT cells): increased
occupancy of PPARα at the enhancer region of the Adrb3 promoter (PPARα; BAT cells): intensified
SMILES: C=CC1=C(C)/C(=C/C2=NC(=C\c3[nH]c(/C=C4\NC(=O)C(C)=C4C=C)c(C)c3CCC(=O)O)/C(CCC(=O)O)=C2C)NC1=O [biliverdin]
Adrb3 mRNA (BAT cells): significant increase; also recorded: only significantly higher
Ucp1 mRNA (BAT cells): significant increase
function of the ligands on mitochondrial function (OCR) [1]: lost
